“Also recorded” adds a separate entry of the source.
Legend:
Format in all cases: cell-based, pig
[1] = tested on: 5-hydroxymethylcytosine (5hmC); assay: Immunofluorescence analysis of 5hmC in Sertoli cells (SCs) of prepubertal pigs; conditions: 48 hours plus 24 of recovery, compared to untreated SCs
Experimental: (§1) The animal studies were conducted in accordance with national guidelines (approved Italian animal protection certification A-3143-01) and guidelines of the Committee for the Care and Use of Animals of the University of Perugia. The experimental protocols were approved by the University of Perugia. The newborn prepubertal “Large White” pigs (Farm “Trequattrini”, S. Elena di Marsciano, PG), aged 7-15 days, were used as SC donors. The SCs were isolated in accordance with previously established methods, modified in our laboratory (Luca et al., 2015).
(§2) The SCs were maintained at 37° C. and 5% CO2 in HAMF-12 (Euroclone, MI, Italy) supplemented with 0.166 nM of retinoic acid (Sigma-Aldrich, St. Louis, MO, USA) and 5 mL/500 ml of ITS (Becton Dickinson cat. no. 354352, NJ, USA) in the absence (untreated) or presence of chemotherapeutic drugs for 48 hours plus 24 of recovery at the following concentrations: • Cisplatin 0.33 μM, 1.66 μM and 3.33 μM; • 4-hydroperoxycyclophosphamide (40HP) 50 and 100 μM; • Doxorubicin 0.1 μM, 0.2 μM and 1 μM; • cisplatin 3.33 μM plus EPA 100 μM; • cisplatin 3.33 μM plus 5-aza-2′-deoxy-cytidine (5 AZA) 1 μM.
The untreated SCs and SCs treated with chemotherapeutic drugs (plus EPA or without EPA), were made to grow on round slides pre-treated with gelatine (Sigma-Aldrich). At the end of the treatment, the SCs were fixed for 30 min in 4% paraformaldehyde in phosphate buffer (PBS). Prior to immunolabelling, the cells were subjected to permeabilization (PBS, 0.2% Triton X) for 5 min at room temperature, blocked in 0.5% bovine serum albumin (BSA; Sigma-Aldrich, St. Louis, MO) in PBS for 10 min, and then exposed to the primary anti-5hmC antibody (Santa Cruz Biotechnology, 1:100 in PBS) overnight at 4° C. The cells were washed three times in PBS for 5 min and then exposed to the secondary Alexa-488 labelled antibody (1:500 in PBS). The cells were counterstained with 4′,6-diamidino-2-phenylindole (DAPI) for 1 min after treatment with RNase (10 mg/mL per 10 min.). The negative control for the immunolabelling consisted in skipping the labelling with the primary antibody and passing directly to the secondary antibody. The slides were then mounted with ProLong® Gold Antifade (ThermoFisher) and the images were acquired with an Olympus BX-41 equipped with Cell-F image processing software (Olympus).

GDNF [2] = assay: Real-time PCR analysis of GDNF gene expression in SCs of prepubertal pigs; conditions: for gene expression of GDNF, real-time PCR: 48 hours plus 24 of recovery, compared to untreated SCs
Experimental: as §1, §2
Total RNA was isolated from the monolayers of untreated SCs and SCs treated with chemotherapeutic drugs (plus EPA or without EPA) by means of an RNA purification kit (Versagene RNA Cell Kit, Gentra Systems, Minneapolis, MN) and quantified by reading the optical density at 260 nm. Subsequently, 1 μg of total RNA was subjected to RT in a final volume of 20 μl by means of the Maxima First Strand cDNA Synthesis kit (Thermo Scientific, MA, USA). Real-time PCR was performed using 16 ng of cDNA, prepared from the RT reaction, and SYBR Green (Stratagene, Amsterdam, Netherlands). Real-time PCR was performed with an Mx3000P cycler (Stratagene) using FAM for detection and ROX as the reference dye. The level of mRNA for each sample was normalised with respect to the mRNA of β-actin and expressed as a change compared to the level of the untreated control cells.

GDNF [3] = assay: Western blotting and densitometric analysis of GDNF protein expression in SCs of prepubertal pigs; conditions: 48 hours plus 24 of recovery, compared to untreated SCs
Experimental: as §1, §2
The SCs were maintained at 37° C. and 5% CO2 in HAMF-12 (Euroclone, MI, Italia) supplemented with 0.166 nM of retinoic acid (Sigma-Aldrich, St. Louis, MO, USA) and 5 mL/500 ml of ITS (Becton Dickinson cat. no. 354352, NJ, USA) in the absence (untreated) or presence of cisplatin 0.5 and 1 μg/ml for 48 hours plus 24 of recovery plus 100 μM EPA.
The SCs were cultured at 37° C. and 5% CO2 in HAMF-12 (Euroclone, MI, Italy) supplemented with 0.166 nM of retinoic acid (Sigma-Aldrich, St. Louis, MO, USA) and 5 mL/500 ml of ITS (Becton Dickinson cat. no. 354352, NJ, USA) in the absence (untreated) or presence of cisplatin 0.5 and 1 μg/ml for 48 hours plus 24 of recovery and with the addition of 100 μM EPA. […] The images were acquired by means of the VersaDoc Imaging System (Bio-Rad Hercules, CA, USA), and the respective signals were quantified using Quantity One software (Bio-Rad) 2.8.

[4] = SCs treated with doxorubicin 0.1, 0.2 and 1 μM
[5] = SCs treated with 4-hydroperoxycyclophosphamide 50 and 100 μM
[6] = SCs treated with cisplatin 0.33, 1.66 and 3.33 μM

Compound: COc1cccc2c1C(=O)c1c(O)c3c(c(O)c1C2=O)C[C@@](O)(C(=O)CO)C[C@@H]3O[C@H]1C[C@H](N)[C@H](O)[C@H](C)O1 [doxorubicin]
- 5-hydroxymethylcytosine (5hmC), immunofluorescence analysis [1, 4]: progressive reduction; also recorded: significant reduction
- gene expression of GDNF, real-time PCR (GDNF [2]; [4]): significant reduction
- protein expression of GDNF, western blotting (GDNF [3]; [4]): significant reduction

Compound: O=P1(N(CCCl)CCCl)NC(OO)CCO1 (stereo not drawn) [4-hydroperoxycyclophosphamide]
- 5-hydroxymethylcytosine (5hmC), immunofluorescence analysis [1, 5]: significant reduction
- 5-hydroxymethylcytosine (5hmC), immunofluorescence analysis ([1]; SCs treated with 4-hydroperoxycyclophosphamide 50 and 100 μM, listed as 4OHP): progressive reduction
- gene expression of GDNF, real-time PCR (GDNF [2]; [5]): significant reduction
- protein expression of GDNF, western blotting (GDNF [3]; [5]): significant reduction

Compound: Nc1ncn([C@H]2C[C@H](O)[C@@H](CO)O2)c(=O)n1 [AZA, 5-aza-2′-deoxycytidine]
- recovery in the expression of GDNF (GDNF [2]; SCs treated with cisplatin 3.33 μM plus 5 AZA 1 μM, compared with EPA treatment): comparable to the one induced by treatment with the fatty acid EPA; also recorded: recovery comparable to that induced by treatment with the fatty acid

Compound: N.N.[Cl][Pt][Cl] [Cisplatin]
- 5-hydroxymethylcytosine (5hmC), immunofluorescence analysis [1, 6]: significant reduction
- 5-hydroxymethylcytosine (5hmC), immunofluorescence analysis ([1]; SCs treated with cisplatin 0.33, 1.66 and 3.33 μM, listed as cisplatin): progressive reduction
- gene expression of GDNF, real-time PCR (GDNF [2]; [6]): significant reduction
- protein expression of GDNF, western blotting (GDNF [3]; [6]): significant reduction
